In the OligoGym collection:
“And” between values parts separate entries of the source, which are not always exact repeats. Equal values may be shown once. After the bases stand the sugars from the 5' end (letter, count) and the backbone: PS all phosphorothioate, else s phosphorothioate and o phosphodiester by linkage. Methylation of C is not given here. e = 2'-O-(2-methoxyethyl) (MOE); k = constrained ethyl (cEt); d = 2'-deoxy (DNA)

Target: APOL1
Settings: ASO

Row | Sequence | target mRNA inhibition (A431, 2 µM) [%] | other results
1 | TGAGTATTGTTTTTGT (sugars k3 d4 k3 e1 d5, PS) | 95 | target mRNA inhibition (A431, 0.0156 µM): 43%; target mRNA inhibition (A431, 0.0625 µM): 69%; target mRNA inhibition (A431, 0.25 µM): 88%; target mRNA inhibition (A431, 1 µM): 94%
2 | AATTCTATTAGAGGGC (sugars k2 d4 e3 k2 d5, PS) | 73 | –
3 | GTTCAAAAGCAGCATT (sugars kkddddekekeddddd, PS) | 82 | –
4 | GAAAATATCAGAGTGT (sugars k4 d9 k3, PS) | – | target mRNA inhibition (A431, 0.0625 µM): 29%; target mRNA inhibition (A431, 0.25 µM): 68%; target mRNA inhibition (A431, 1 µM): 90%
5 | ATCAGATGGGTACTTC (sugars kkddddkekekddddd, PS) | 66 | –
6 | TTTGTAAGTGCAACCA (sugars k2 d4 e3 k2 d5, PS) | 99 | target mRNA inhibition (A431, 0.0156 µM): 23%; target mRNA inhibition (A431, 0.0625 µM): 60%; target mRNA inhibition (A431, 0.25 µM): 87%; target mRNA inhibition (A431, 1 µM): 98%
7 | ATTCTCATGGTACAGG (sugars kkddddkdkdkddddd, PS) | 84 | –
8 | ATTCTATTAGAGGGCT (sugars kdddddkekekddddd, PS) | 45 | –
9 | TTCTATTAGAGGGCTA (sugars kkddddkekekddddd, PS) | 53 | –
10 | TTTATACCAGTGTCTT (sugars kkddddkdkdkddddd, PS) | 81 | –
11 | GTTCAAAAGCAGCATT (sugars kekddddeekkddddd, PS) | 89 | –
12 | TCCTTATGCTTACTCC (sugars k4 d9 k3, PS) | – | target mRNA inhibition (A431, 0.0625 µM): 50%; target mRNA inhibition (A431, 0.25 µM): 80%; target mRNA inhibition (A431, 1 µM): 93%
13 | ATTCTCATGGTACAGG (sugars kdddddkekekddddd, PS) | 83 | –
14 | AGCTTTAAACTCAGGT (sugars k3 d5 k3 d5, PS) | 68 | –
15 | GAATTATGGAATTGCA (sugars k2 d4 e3 k2 d5, PS) | 94 | –
16 | AAGTATTGCCAGCTAA (sugars kkkddddkekeddddd, PS) | 63 | –
17 | GTTCAAAAGCAGCATT (sugars kkddddkekekddddd, PS) | 60 | –
18 | CTTTAAACTCAGGTGA (sugars k2 d4 e3 k2 d5, PS) | 92 | target mRNA inhibition (A431, 0.0156 µM): 19%; target mRNA inhibition (A431, 0.0625 µM): 40%; target mRNA inhibition (A431, 0.25 µM): 61%; target mRNA inhibition (A431, 1 µM): 85%
19 | TGTGTTTAGGCATTCA (sugars k4 d9 k3, PS) | – | target mRNA inhibition (A431, 0.25 µM): 61% and 86%; target mRNA inhibition (A431, 1 µM): 65% and 86%
20 | TTATATTTGATCCTCA (sugars k3 d4 k3 e1 d5, PS) | 96 | –
21 | GTTTTGTTGCACCCTC (sugars k4 d9 k3, PS) | – | target mRNA inhibition (A431, 0.0625 µM): 65%; target mRNA inhibition (A431, 0.25 µM): 82%; target mRNA inhibition (A431, 1 µM): 95%
22 | CATTCAGAATTTCCAC (sugars kkkddddkekekdddd, PS) | 65 | –

Row | Sequence | target mRNA inhibition (A431, 2 µM) [%] | other results
23 | TGGGAATTATGGAATT (sugars k2 d4 e3 k2 d5, PS) | 63 | –
24 | CACATCATTGGGTTAT (sugars kkddddkdkdkddddd, PS) | 79 | –
25 | CTGTTCTAACTCTTGG (sugars k2 d4 e3 k2 d5, PS) | 93 | –
26 | CGTCAATATATTCTTT (sugars k2 d4 e3 k2 d5, PS) | 81 | –
27 | TGTAAGTGCAACCAAT (sugars kddddkekekeddddd, PS) | 67 | –
28 | CTTTAAACTCAGGTGA (sugars kkddddekekeddddd, PS) | 91 | –
29 | GTTATGAAATTATTGG (sugars kkkddddkdkdkdddd, PS) | 91 | –
30 | GTATTTCTTGATGTGG (sugars kkddddekekeddddd, PS) | 96 | target mRNA inhibition (A431, 0.04 µM): 58%; target mRNA inhibition (A431, 1 µM): 96%
31 | AATTCTATTAGAGGGC (sugars kkkddddkekeddddd, PS) | 82 | –
32 | GCTAATTTTCTGACTG (sugars kddddkekekeddddd, PS) | 88 | –
33 | CATTCAGAATTTCCAC (sugars kkdddddkekeddddd, PS) | 84 | –
34 | ACGCAATGCTGACTTG (sugars k3 d5 k3 d5, PS) | 94 | target mRNA inhibition (A431, 0.0625 µM): 54%; target mRNA inhibition (A431, 0.25 µM): 83%; target mRNA inhibition (A431, 1 µM): 94%
35 | GCTTTAAACTCAGGTG (sugars kkddddkdkdkddddd, PS) | 96 | target mRNA inhibition (A431, 0.0156 µM): 25%; target mRNA inhibition (A431, 0.0625 µM): 63%; target mRNA inhibition (A431, 0.25 µM): 83%; target mRNA inhibition (A431, 1 µM): 94%
36 | ATTCAGAATTTCCACT (sugars kkdddddkekeddddd, PS) | 88 | –
37 | CGTCAATATATTCTTT (sugars kkddddkekekkdddd, PS) | 95 | target mRNA inhibition (A431, 0.0156 µM): 3%; target mRNA inhibition (A431, 0.0625 µM): 36%; target mRNA inhibition (A431, 0.25 µM): 70%; target mRNA inhibition (A431, 1 µM): 88%
38 | ATTCAGAATTTCCACT (sugars k2 d4 e3 k2 d5, PS) | 77 | –
39 | AGTATTGTTTTTGTGG (sugars kkdddddkekeddddd, PS) | 91 | –
40 | TCAGATGGGTACTTCT (sugars kkddddkekekddddd, PS) | 82 | –
41 | TTATTCTCATGGTACA (sugars k2 d4 e3 k2 d5, PS) | 48 | –
42 | AAGTATTGCCAGCTAA (sugars kddddkekekeddddd, PS) | 25 | –
43 | GGAATTATGGAATTGC (sugars kkdddddkekeddddd, PS) | 40 | –
